According to patent US20130130223A1, “NOVEL CONDITIONALLY IMMORTALIZED HUMAN PROXIMAL TUBULE CELL LINE EXPRESSING FUNCTIONAL INFLUX AND EFFLUX TRANSPORTERS” (priority 2009, published 2013):

What was measured:
OK cells = settings: reference [12]; cited from earlier work
OCT2/SLC22A2 = target: T1, OCT2/SLC22A2 (Homo sapiens, UniProt O15244); test: OCT2/SLC22A2 activity (basolateral ASP uptake); format: cell-based
T1 construct: investigated in ciPTEC-14.4 by measuring the activity and expression of the solute carrier tansporter (SLC) OCT2/SLC22A2; endogenous in cells; host or cells: ciPTEC-14.4 grown on Transwell filters
T1 sequence (O15244 1-555): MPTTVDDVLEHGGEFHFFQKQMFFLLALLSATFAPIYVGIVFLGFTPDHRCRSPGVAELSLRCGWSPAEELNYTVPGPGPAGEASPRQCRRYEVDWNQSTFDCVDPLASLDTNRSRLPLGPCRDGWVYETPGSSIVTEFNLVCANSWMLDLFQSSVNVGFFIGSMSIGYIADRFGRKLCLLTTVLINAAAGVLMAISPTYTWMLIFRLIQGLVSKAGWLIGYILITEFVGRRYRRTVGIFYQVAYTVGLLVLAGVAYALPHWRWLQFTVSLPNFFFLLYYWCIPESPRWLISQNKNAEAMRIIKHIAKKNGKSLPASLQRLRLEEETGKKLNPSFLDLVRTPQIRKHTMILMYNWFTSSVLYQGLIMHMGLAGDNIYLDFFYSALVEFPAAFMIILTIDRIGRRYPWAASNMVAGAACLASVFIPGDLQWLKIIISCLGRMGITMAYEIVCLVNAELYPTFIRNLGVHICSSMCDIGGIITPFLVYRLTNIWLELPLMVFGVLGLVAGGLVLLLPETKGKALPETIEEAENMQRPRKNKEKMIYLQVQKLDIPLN
Method: Transport of xenobiotics across the basolateral membrane was investigated in ciPTEC-14.4 by measuring the activity and expression of the solute carrier tansporter (SLC) OCT2/SLC22A2 using a method adapted from Brown et al. Cells were grown on Transwell®-Clear polyester membranes as described before. Activity of OCT2 was measured by incubating 1 μM fluorescent OCT2 substrate 4-(4-(dimethylamino)styryl)-N-methylpyridinium iodide (ASP, Invitrogen) in Hepes-Tris buffer for 1 min at 37° C. at the basal compartment. To inhibit OCT2 mediated uptake, cells were exposed to 100 μM tetrapentylammonium (TPA) at both apical and basal compartments for 10 min prior to uptake of ASP. Additionally, one set of experiments was performed at 4° C. After incubation, transport was arrested using 1 mM ice-cold TPA. Cells were homogenized using 250 μl Hepes-Tris-Triton (0.1%) buffer for 30 min, followed by analyzing fluorescence intensity (excitation 450 nm, emission 642 nm) using Victor3 Multiplate Reader (Perkin Elmer Inc.). Data are expressed as mean+i-SE.

ciPTEC-14.4 = test: Albumin uptake by endocytosis (BSA-FITC uptake); format: cell-based, human
Method: The ability of ciPTEC-14.4 to reabsorb albumin was investigated by the incubation of confluent monolayers in 24 well plates with 50 μg/ml BSA-FITC (Sigma-Aldrich) for 30 min at 37° C. unless described otherwise. Uptake was arrested using ice-cold PBS and cells were detached using trypsin, fixed by paraformaldehyde (0.5%) in PBS and analyzed using flow cytometry or immuno-fluorescence microscopy. Concentration- and temperature-dependent uptake, was investigated using a concentration range BSA-FITC (0; 3.7; 11; 33; 100; 300 μg/ml) at 37° C. and on ice for 30 min. Uptake inhibition was studied in three independent experiments by incubating the cells with BSA-FITC (50 μg/ml) in addition of excess unlabelled BSA (10 mg/ml) or recombinant RAP (1 μM), which was a kind gift of Dr. M. Nielsen (University of Aarhus, Denmark). Uptake inhibition by RAP was further examined using a dilution range of RAP. BSA uptake in saturation experiments are plotted as mean fluorescence intensity and in inhibition experiments as mean (+/−SE) percentage uptake compared to control condition.
(§1) Michaelis-Menten curve fitting for calculation of Km and Vmax values was performed by non-linear regression analysis using GraphPad Prism 4.03 software. Differences in substrate transport in presence or absence of inhibitors or unlabelled analogues were assessed by a paired t-test.

[1] = tested on: sodium-dependent transporters NaPi-IIa (SLC34A1) and NaPi-IIc (SLC34A3); test: Sodium-dependent phosphate uptake (32PO4); format: cell-based, human
Method: Phosphate uptake was performed in confluent monolayers using 32PO4 (Perkin Elmer, Waltham Mass., USA) as described earlier. Cells cultured for 10 days at 37° C. were incubated with 0.2 mM KH2PO4 (10 μCi/ml) for 5 min in four independent experiments, in the presence of 137 mM sodium or 137 mM NMDG to study sodium-dependent transport. Additionally, time- (0.5; 1; 2; 5; 10; 15; 30 or 60 min) and concentration-dependent (0.02; 0.07; 0.22; 0.66 or 2 mM PO4) uptake was studied. Data are expressed as mean+/−SE.
as §1

[2] = tested on: opossum kidney (OK) cells; settings: reference [20], read-out: Km of apical phosphate transport; cited from earlier work

albumin
apparent Km of albumin uptake (OK cells): 20 µg/mL

CCCCC[N+](CCCCC)(CCCCC)CCCCC [TPA, tetrapentylammonium]
inhibition at 1 min, 100 μM (OCT2/SLC22A2; 100 μM TPA, 1 μM ASP, 1 min 37° C., basal compartment, p<0.05, read-out: inhibition of ASP transport): 36%

unlabelled FITC: excess unlabelled bovine serum albumin used as competitor of BSA-FITC uptake
inhibition of BSA-FITC uptake (ciPTEC-14.4; 200-fold excess unlabelled (10 mg/ml), BSA-FITC 50 μg/ml, p<0.01): 54%

O=P([O-])(O)O.[K+] [phosphate, KH2PO4]
decrease of phosphate uptake in the absence of sodium ([1]; 0.2 mM Pi, 5 min, NMDG as sodium replacement, p<0.001): approximately 86% | Km ([1]; ciPTEC-14.4, read-out: apparent Km of sodium-dependent phosphate uptake): 120 µM | Km [2]: 370 µM

CN(C)c1ccc(/C=C/c2cc[n+](C)cc2)cc1 [ASP, 4-(4-(dimethyl-amino)styryl)-N-methylpyridinium iodide]
inhibition at 1 min, 1 μM (OCT2/SLC22A2): 30%

BSA-FITC: FITC labelled bovine serum albumin
apparent Km of BSA-FITC uptake (ciPTEC-14.4; ciPTEC-14.4, passage 20-25, 30 min, 37° C.): 126 µg/mL

B1: RAP: recombinant receptor associated protein, known inhibitor of albumin endocytosis by binding to multi-ligand receptor megalin (protein, UniProt P30533 35-357, looked up)
Alpha-2-macroglobulin …: YSREKNQPKPSPKRESGEEFRMEKLNQLWEKAQRLHLPPVRLAELHADLKIQERDELAWKKLKLDGLDEDGEKEARLIRNLNVILAKYGLDGKKDARQVTSNSLSGTQEDGLDDPRLEKLWHKAKTSGKFSGEELDKLWREFLHHKEKVHEYNVLLETLSRTEEIHENVISPSDLSDIKGSVLHSRHTELKEKLRSINQGLDRLRRVSHQGYSTEAEFEEPRVIDLWDLAQSANLTDKELEAFREELKHFEAKIEKHNHYQKQLEIAHEKLRHAESVGDGERVSRSREKHALLEGRTKELGYTVKKHLQDLSGRISRARHNEL
inhibition of BSA-FITC uptake (ciPTEC-14.4; 1 μM RAP, BSA-FITC 50 μg/ml, 30 min 37° C., p<0.05): 41% | inhibition of BSA-FITC uptake, dilution range of RAP (ciPTEC-14.4; BSA-FITC 50 μg/ml): inhibited the uptake of BSA-FITC in a concentration-dependent manner
